# Laboratory results taken from patent US8501910B2, “Protein sweetener” (Wisconsin Alumni Research Foundation, priority 2007, dated 2013).
# Test system: humans
# Experiment: Human taste panel scoring sweetness on a magnitude labeled scale
# Format: in vivo
# Settings: for sweetness potency: FIG. 1, human taste panel, varied concentrations diluted in water, compared for the weight being tested
# From the text: To test the sweetness potency of our peptides we tested human perception of sweetness against known controls using varied concentrations of the protein (or other substance) being diluted in water. In the taste panel, humans were requested to score the sweetness sensations of the stimuli with a magnitude labeled scale in accordance with the techniques of B. Green et al., 21 Chemical Senses 323 (1996) (e.g. barely detectable; weak; moderate; strong; very strong; strongest imaginable).
# We first gave those testers a sample of pure water with 2-10% sucrose as a calibration exercise two hours before protein testing. After the sucrose testing, they rinsed their mouth out thoroughly. The normal protocol included applying about 125 μI of the substance being tasted to the tongue, with the tested material kept in the mouth for about a minute.
Substance,"sweetness potency (individual observer) (tested by one individual observer, not a complete panel)",sweetness potency
SEQ ID NO. 4: Brazzein variant with tyrosine at position 53 of SEQ ID NO: 1 replaced by another amino acid (probably Phe) (DKCKKVYENYPVSKCQLANQCNYDCKLKKHARSGECFYDEKRNLQCICDYCEF),results similar to those for SEQ ID NO.5,
SEQ ID NO. 5: Brazzein variant Y53W: tyrosine at position 53 of SEQ ID NO: 1 replaced (DKCKKVYENYPVSKCQLANQCNYDCKLKKHARSGECFYDEKRNLQCICDYCEW),,significantly higher sweetness potency than either sucrose or wild type Brazzein
SEQ ID NO. 6: Brazzein variant Y53H: tyrosine at position 53 of SEQ ID NO: 1 replaced (DKCKKVYENYPVSKCQLANQCNYDCKLKKHARSGECFYDEKRNLQCICDYCEH),,significantly higher sweetness potency than sucrose
SEQ ID NO. 7: Brazzein variant with Ile Ile inserted at the N terminus of wild type Brazzein (IIDKCKKVYENYPVSKCQLANQCNYDCKLNKHARSGECFYDEKRNLQCICDYCEY),,significantly higher sweetness potency than either sucrose or wild type Brazzein
SEQ ID NO. 8: Brazzein variant with Gly Pro inserted at the N terminus of wild type Brazzein (GPDKCKKVYENYPVSKCQLANQCNYPCKLNKHARSGECFYDEKRNLQCICDYCEY),,significantly higher sweetness potency than either sucrose or wild type Brazzein
